From patent publication US6162805A, “Use of an NK-1 receptor antagonist and an SSRI for treating obesity” (Merck Sharp & Dohme Limited, priority 1997, dated 2000)
Where two headings read alike, the source gives them in different places.

What was measured:
foot tapping in gerbils = experiment: Gerbil Foot-Tapping; format: in vivo, Mongolian gerbil; settings: Meriones unguiculatus, iv, i.v.
Source text: CNS-penetrant NK-1 receptor antagonists for use in the present invention can be identified by their ability to inhibit foot tapping in gerbils induced by anxiogenic agents (such as pentagastrin) or central infusion of NK-1 receptor agonists such as GR73632, or caused by aversive stimulation such as foot shock or single housing, based on the method of Rupniak & Williams, Eur. J. Pharmacol., 1994, 265, 179. […] Alternatively, test compounds may be administered orally or by subcutaneous or intraperitoneal routes. A skin incision is then made in the midline of the scalp to expose the skull. An anxiogenic agent (e.g. pentagastrin) or a selective NK-1 receptor agonist (e.g. GR73632 ([…] ]-substance P-(7-11)) is infused directly into the cerebral ventricles (e.g. 3 pmol in 5 μl i.c.v., depending on test substance) by vertical insertion of a cuffed 27 gauge needle to a depth of 4.5 mm below bregma. The scalp incision is closed and the animal allowed to recover from anaesthesia in a clear perspex observation box (approximately 25 cm×20 cm×20 cm). The duration and/or intensity of hind foot tapping is then recorded continuously for approximately 5 minutes. Alternatively, the ability of test compounds to inhibit foot tapping evoked by aversive stimulation, such as foot shock or single housing, may be studied using a similar method of quantification.

[1] = test system: separation-induced vocalisations in guinea-pig pups; experiment: Separation-Induced Vocalisation in guinea-pig pups; format: in vivo; settings: for attenuation of separation-induced vocalisations compared with baseline: 30 minutes previously; for ED50: Cavia porcellus, read-out: guinea-pig vocalisation ID50
Source text: Male and female guinea-pigs pups are housed in family groups with their mothers and littermates throughout the study. Experiments are commenced […] when the pups are at least 2 weeks old. Before entering an experiment, the pups may be screened to ensure that a vigorous vocalisation response is reproducibly elicited following maternal separation. The pups are placed individually in an observation cage (approximately 55 cm×39 cm×19 cm) in a room physically isolated from the home cage for approximately 15 minutes and the duration and/or number of vocalisation during this baseline period is recorded. […] On test days each pup receives an oral dose or an s.c. or i.p. injection of test compound or vehicle and is then immediately returned to the home cage with its mother and siblings for at least 30 to 60 minutes (or for up to 4 hours following an oral dose, dependent upon the oral pharmacokinetics of the test compound) before social isolation for 15 minutes as described above. The duration and/or number of vocalisation on drug treatment days may be expressed as a percentage of the pre-treatment baseline value for each animal or compared with values obtained in vehicle-treated animals. The same subjects may be retested once weekly for up to 6 weeks. Between 6 and 8 animals receive each test compound at each dose tested.
(v) Determine activity of compounds in assays sensitive to conventional serotonergic drugs (inhibition of pharmacologically evoked foot tapping in gerbils and/or inhibition of distress vocalisations in guinea-pig pups (Assay 4)).

[2] = test system: cisplatin-induced emesis in ferrets; experiment: Ferret Emesis (cisplatin-induced); format: in vivo; settings: Mustela putorius, po, read-out: ferret emesis ID90
Description: Ten minutes later they are fed with approximately 100 g of tinned cat food. At 60 minutes following oral dosing, cisplatin (10 mg/kg) is given i.v. via a jugular vein catheter inserted under a brief period of halothane anaesthesia. The catheter is then removed, the jugular vein ligated and the skin incision closed. The ferrets recover rapidly from the anaesthetic and are mobile within 10-20 minutes. The animals are observed continuously during recovery from the anaesthetic and for 4 hours following the cisplatin injection, after which time the animals are killed humanely. The numbers of retches and vomits occurring during the 4 hours after cisplatin administration are recorded by trained observers.

[3] = 5 min, read-out: gerbil foot-tapping (5 mins.) ID50
[4] = 24 hrs., read-out: gerbil foot-tapping (24 hrs.) ID50

With `C[C@@H](O[C@H]1OCCN(Cc2nn[nH]c2CN(C)C)[C@H]1c1ccccc1)c1cc(C(F)(F)F)cc(C(F)(F)F)c1` [Test Compound A, 2-(R)-(1-(R)-(3,5-bis(trifluoromethyl)phenyl)ethoxy)-4-(5-(dimethylamino)methyl-1,2,3-triazol-4-yl)methyl-3-(S)-phenylmorpholine] the ED50 (foot tapping in gerbils; [3]) was 0.12 mg/kg, the ED50 (foot tapping in gerbils; [4]) was 0.17 mg/kg and the “attenuation of separation-induced vocalisations compared with baseline” value ([1]; 0.25 mg/kg s.c. alone) was “approximately 25%”. For the same compound, the ED50 ([1]; sc) was 0.5 mg/kg.
With `C[C@@H](O[C@H]1OCCN(Cc2n[nH]c(=O)[nH]2)[C@H]1c1ccc(F)cc1)c1cc(C(F)(F)F)cc(C(F)(F)F)c1` [2-(R)-(1-(R)-(3,5-bis(trifluoromethyl)phenyl)-ethoxy)-3-(S)-(4-fluorophenyl)-4-(3-(5-oxo-1H,4H-1,2,4-triazolo)methyl)-morpholine] the ED50 (foot tapping in gerbils; [3]) was 0.36 mg/kg, the ED50 (foot tapping in gerbils; [4]) was 0.33 mg/kg and the ED90 [2] was < 3 mg/kg. It also gave an ED50 ([1]; po, 4 hrs. pretreatment) of 0.73 mg/kg.
For `CNCCC(Oc1ccc(C(F)(F)F)cc1)c1ccccc1` (stereo not shown) [fluoxetine, reference compound], the “attenuation of separation-induced vocalisations compared with baseline” value ([1]; 2 mg/kg i.p. alone) was “approximately 25%”.
In the case of `C[C@@H](O[C@@H]1OCCN(Cc2nn[nH]c2CN(C)C)[C@@H]1c1ccccc1)c1cc(C(F)(F)F)cc(C(F)(F)F)c1` [Test Compound B, 2-(S)-(1-(R)-(3,5-bis(trifluoromethyl)phenyl)ethoxy)-4-(5-(dimethylamino)methyl-1,2,3-triazol-4-yl)methyl-3-(R)-phenylmorpholine, reference compound], the “attenuation of separation-induced vocalisations, administered alone” value ([1]; 0.25 mg/kg s.c. alone (FIG. 1)) is reported as “failure of the less active enantiomer, Test Compound B (0.25 mg/kg s.c.) to attenuate separation-induced vocalisations when administered alone”.
